Square brackets hold non-standard residues; d marks the D form. Peptide text beside a SMILES is read from it. * marks the point of attachment. 2Abz = Nc1ccccc1C(=O)O; Bz = O=C(c1ccccc1)*
Columns and labels:
[1] = Hydrogel formation, critical gel concentration and gelation time by vial inversion test; assay type: physicochemical
From the text: Several triggers such as physical stimuli, pH switch, solvent switch, or a combination of these, were employed to assess the self-assembly of compounds 1–11 in water. Initially, hydrogel formation of compounds 1–11, at 1% (w/v), was investigated using a combination of pH switch and temperature switch. The compounds were heated in dilute sodium hydroxide (NaOH) in order to deprotonate the carboxylic acid group at the C-terminus of the short peptides.
Compared to a mineral acid, GdL promotes the formation of a homogenous hydrogel due to its slow hydrolysis and fast dissolution rate in water[39],[40].
In addition, the effect of salt which can induce gelation in basic peptide solutions[41], due to high ionic was also investigated for peptides 1–11.
In a final attempt to induce gelation in peptides 4, 7 and 11, a solvent switch method using dimethyl sulfoxide (DMSO), methanol, or ethanol as co-solvent was employed[42]–[47]. […] Given that these hydrogels were designed with antibacterial applications in mind, due to the potential toxicity concerns arising from the use of organic co-solvents, further characterisation of peptides 4, 7 and 11 was not carried out.
The critical gel concentration (CGC) represents the minimum amount of the anthranilamide-based short peptide required to form a hydrogel. The CGC of anthranilamide-based short peptides were qualitatively assessed by varying the short peptide concentrations and conducting vial inversion test[48]–[50]. […] Here, gelation time represents the time required for these short peptides, at 1% (w/v), to form self-supporting hydrogels as assessed through the vial inversion test.
To a pre-weighed compound in a glass vial, 1 M NaOH (2–8 molar equiv.) was added followed by addition of Mili-Q water. The suspension was then heated and vortexed vigorously for 15 minutes to completely dissolve the compound. In the case of N-acetyl 1, N-benzoyl 2, N-naphthoyl 3, fluoro 5 and methyl 6, these clear solutions were left to cool to room temperature for 1–30 minutes. GdL (2–3 equiv.) was added to a solution of compounds 7–11 in NaOH. […]

S. aureus = settings: cited from earlier work
Protocol: With a complete understanding of the hydrogel ultrastructure now in-hand, the antibacterial activity of N-acetyl 1, N-benzoyl 2 and N-naphthoyl 3 was assessed, in order to evaluate the effect of increased hydrophobicity on antibacterial activity. Further, the stiffest (BA 9) and softest (methyl 6) of the remaining gelators were tested to discern the relationship of hydrogel stiffness to antimicrobial activity. Staphylococcus aureus, the most common causative organism for skin and soft tissue infections, was chosen as the bacterial strain to assess the hydrogels antibacterial activity. Thes ...

HEK293T cells = assay: Contact cytotoxicity of hydrogels, Alamar Blue colorimetric assay; assay type: cell-based; settings: hydrogels at 0.25, 0.5 and 1% (w/v), cells seeded on hydrogel, 24 h, repeated at least three times
Protocol: With this in mind, the cytotoxicity of lead candidates N-benzoyl 2, N-naphthoyl 3, and BA 9 (para) from the antibacterial studies were examined against HEK293T cells, as a robust mammalian cell model. As the antibacterial activity of the 2, 3 and 9 was evaluated in the gel phase, contact cytotoxicity of hydrogels at concentrations of 0.25, 0.5, and 1% (w/v) was examined.
Similar to previously reported method, cytotoxicity measurement was performed using an Alamar Blue colorimetric assay on HEK293T cells. HEK293T cells were passaged using standard cell culture procedures. Cells were detached with trypsin and centrifuged (1000 rpm for 3 min). After supernatant was removed, the cells were re-suspended in Dulbecco’s Modified Eagle Medium (DMEM) at a concentration of 60,000 cells/mL. Cells were seeded onto hydrogels at a concentration of 6,000 cells/well. Hydrogels were prepared as described above and 100 µL cast into the wells of a 96 well plate in triplicate. After incubating overnight, 100 µL media was added to the set hydrogels and incubated overnight. The following day, excess media was aspirated and cells seeded atop the hydrogels as above. After incubation for 24 hours, 10 µL Alamar Blue was added to each well, followed by further incubation for another 4 hours. […] BioRad Benchmark plate reader was used to measure the absorbance at 570 nm and 596 nm. […]

[2] = not given; remark: listed apart in the source
[3] = Temperature dependent CD spectroscopy (thermal denaturation); assay type: physicochemical; settings: temperature increased from 25 °C to 60 °C; diluted hydrogel
Protocol: In addition, CD spectroscopy was also used as a tool to investigate gradual thermal denaturation of anthranilamide-based short peptides.
The anthranilamide-based hydrogels were prepared at 0.8% (w/v) and were diluted 10 times before being transferred into a 0.5 mm path length cuvette. Meanwhile, for the concentration dependence, the hydrogel made from N-benzoyl 2 at 0.8% (w/v) was diluted to make up concentrations ranging from 0.058 mM – 0.470 mM before being transferred into a 0.5 mm path length cuvette.
CD spectrum were obtained using a ChirascanPlus CD spectrometer (Applied Photophysics, UK) scanning wavelengths of 180–500 nm with a bandwidth of 1 nm, 0.6 s per point, and step of 1 nm[22]. The outcome of three experiments were then averaged and plotted into a single plot value. The high tension (HT) value of each experiment was maintained to be below 600 mV (Fig. S17).

Question: With `O=C(N[C@@H](Cc1ccccc1)C(=O)N[C@@H](Cc1ccccc1)C(=O)O)c1ccccc1NS(=O)(=O)c1cccc2ccccc12` [compound 4] as the molecule, how does the Hydrogel formation outcome ([1]; 1% (w/v), heated in dilute NaOH, cooled to room temperature (pH switch and temperature switch), up to 48 hours) read?
Answer: The Hydrogel formation outcome was “remained as clear solutions”.

Question: What about the Hydrogel formation outcome ([1]; 3 equivalents of GdL added to basic solution) of the same molecule?
Answer: Its Hydrogel formation outcome is “white precipitate”.

Question: And the Hydrogel formation outcome ([1]; solvent switch, DMSO: water at 1% w/v)?
Answer: The Hydrogel formation outcome was “gels were observed only for the first 5 minutes”.

Question: With `CC(=O)Nc1ccccc1C(=O)N[C@@H](Cc1ccccc1)C(=O)N[C@@H](Cc1ccccc1)C(=O)O` (Ac-[2Abz]-Phe-Phe-OH) as the molecule, how does the amide I peak (disordered coil) read?
Answer: Its amide I peak (disordered coil) is 1650 cm⁻¹.

Question: Which MIC (S. aureus) does the source give for `[Na+].[OH-]` [NaOH, sodium hydroxide] here?
Answer: Its MIC is 7500 µg/mL.

Question: Which “Cytotoxicity towards HEK cells” value (HEK293T cells) does the source give for `O=C(Nc1ccccc1C(=O)N[C@@H](Cc1ccccc1)C(=O)N[C@@H](Cc1ccccc1)C(=O)O)c1ccc2ccccc2c1` [compound 3] here?
Answer: The value was “poor cell viability”.

Question: What about the Gʹ (stiffness) [2] of the same molecule?
Answer: Its Gʹ (stiffness) is 5.7 kPa.

Question: Which “Cytotoxicity towards HEK cells” value (HEK293T cells) does the source give for `O=C(Nc1ccccc1C(=O)N[C@@H](Cc1ccccc1)C(=O)N[C@@H](Cc1ccccc1)C(=O)O)c1ccccc1` [compound 2] ({Bz-2Abz}-Phe-Phe-OH) here?
Answer: Its value is “moderate cytotoxicity”.

Question: What about the “Thermal stability of ß-sheet secondary structure (CD)” value [3] of the same molecule?
Answer: Its value is “no significant conformational changes”.

Question: What about the Gʹ (stiffness) [2] of the same molecule?
Answer: The Gʹ (stiffness) was 16.9 kPa.

Source: PMC6972728, “Anthranilamide-based Short Peptides Self-Assembled Hydrogels as Antibacterial Agents” (Scientific Reports, 2020)
